# Measured values published in patent US20260365628A1, “SUBSTITUTED 3,4-DIHYDROQUINOLINONE INHIBITORS OF TSHR” (Septerna, Inc., priority 2022, published 2026).
# Molecular target: T1, hTSHR (Homo sapiens, UniProt P16473)
# T1 construct: expressed in transfected cells
# Experiment: hTSHR TR-FRET cAMP Assay (inhibition of M22-stimulated cAMP production)
# Format: cell-based
# Conditions: Expi293F Inducible cells stably expressing hTSHR; cAMP HTRF; stimulated with EC80 of anti-TSHR antibody M22; 15 min compound preincubation, 30 min at 37° C.; read-out: Activity (IC50 bins)
# Method in brief: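 Readout was a cAMP HTRF ratio of 655/620 nm after lysis, scaled between the EC80 M22 signal (0% inhibition) and no-agonist vehicle (100%). Frozen induced Expi293F-hTSHR cells saw test compounds (0.5% DMSO) for 15 min at 37 °C before 30 min of M22 stimulation at EC80.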
# T1 sequence (P16473 21-764): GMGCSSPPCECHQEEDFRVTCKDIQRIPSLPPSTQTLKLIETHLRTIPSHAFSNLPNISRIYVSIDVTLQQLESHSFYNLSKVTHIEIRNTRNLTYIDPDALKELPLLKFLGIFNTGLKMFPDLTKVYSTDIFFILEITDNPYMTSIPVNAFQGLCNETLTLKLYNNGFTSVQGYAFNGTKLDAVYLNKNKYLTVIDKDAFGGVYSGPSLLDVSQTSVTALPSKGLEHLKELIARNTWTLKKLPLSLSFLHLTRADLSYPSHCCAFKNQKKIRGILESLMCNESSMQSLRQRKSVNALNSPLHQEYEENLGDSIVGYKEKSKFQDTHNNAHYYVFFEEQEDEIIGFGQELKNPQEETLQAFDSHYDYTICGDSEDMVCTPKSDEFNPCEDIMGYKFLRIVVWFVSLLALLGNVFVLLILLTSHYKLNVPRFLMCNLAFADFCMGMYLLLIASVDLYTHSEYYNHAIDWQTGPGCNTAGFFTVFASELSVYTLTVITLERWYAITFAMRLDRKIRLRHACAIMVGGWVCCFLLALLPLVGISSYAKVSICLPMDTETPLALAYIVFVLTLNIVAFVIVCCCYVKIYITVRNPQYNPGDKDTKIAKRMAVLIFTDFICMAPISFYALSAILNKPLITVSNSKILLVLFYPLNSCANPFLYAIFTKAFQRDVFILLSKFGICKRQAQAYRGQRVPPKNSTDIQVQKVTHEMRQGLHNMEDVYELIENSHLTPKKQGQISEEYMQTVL
row,Compound,IC50 [µM]
1,"C[C@@H](c1cc(OC(F)(F)F)ccn1)n1c(=O)cnc2cc(NC(=O)NC(C)(C)C)ccc21 [Example 129, (S)-1-(tert-butyl)-3-(2-oxo-1-(1-(4-(trifluoromethoxy)pyri-din-2-yl)ethyl)-1,2-dihydroquinoxalin-6-yl)urea]",> 1
2,"C[C@@H](c1cc(Cl)ccc1Cl)n1c(=O)cnc2cc(NC(=O)NC(C)(C)C)ccc21 [Example 130, (S)-1-(tert-butyl)-3-(1-(1-(2,5-dichlorophenyl)ethyl)-2-oxo-1,2-dihydroquinoxalin-6-yl)urea]",0.1 to 1
3,"C[C@@H](c1cccc(Cl)c1)n1c(=O)cnc2cc(NC(=O)NC(C)(C)C)ccc21 [Example 131, (S)-1-(tert-butyl)-3-(1-(1-(3-chlorophenyl)ethyl)-2-oxo-1,2-dihydroquinoxalin-6-yl)urea]",< 0.1
4,"Cc1cccc([C@H](C)n2c(=O)cnc3cc(NC(=O)NC(C)(C)C)ccc32)c1 [Example 132, (S)-1-(tert-butyl)-3-(2-oxo-1-(1-(m-tolyl)ethyl)-1,2-dihydroquinoxalin-6-yl)urea]",0.1 to 1
5,"C[C@@H](c1ccc(Cl)c(Cl)c1)n1c(=O)cnc2cc(NC(=O)NC(C)(C)C)ccc21 [Example 133, (S)-1-(tert-butyl)-3-(1-(1-(3,4-dichlorophenyl)ethyl)-2-oxo-1,2-dihydroquinoxalin-6-yl)urea]",0.1 to 1
6,"C[C@@H](c1cccc(C2CC2)c1)n1c(=O)cnc2cc(NC(=O)NC(C)(C)C)ccc21 [Example 134, (S)-1-(tert-butyl)-3-(1-(1-(3-cyclopropylphenyl)eth-yl)-2-oxo-1,2-dihydroquinoxalin-6-yl)urea]",0.1 to 1
7,"C[C@@H](c1cccc(C2CCC2)c1)n1c(=O)cnc2cc(NC(=O)NC(C)(C)C)ccc21 [Example 135, (S)-1-(tert-butyl)-3-(1-(1-(3-cyclo-butylphenyl)ethyl)-2-oxo-1,2-dihydroquinoxalin-6-yl)urea]",0.1 to 1
8,"CC(C)c1cccc([C@H](C)n2c(=O)cnc3cc(NC(=O)NC(C)(C)C)ccc32)c1 [Example 136, (S)-1-(tert-butyl)-3-(1-(1-(3-iso-propylphenyl)ethyl)-2-oxo-1,2-dihydroquinoxalin-6-yl)urea]",0.1 to 1
9,"CC(C)Oc1cccc([C@H](C)n2c(=O)cnc3cc(NC(=O)NC(C)(C)C)ccc32)c1 [Example 137, (S)-1-(tert-butyl)-3-(1-(1-(3-isopropoxyphenyl)eth-yl)-2-oxo-1,2-dihydroquinoxalin-6-yl)urea]",0.1 to 1
10,"C[C@@H](c1cccc(C(C)(C)C)c1)n1c(=O)cnc2cc(NC(=O)NC(C)(C)C)ccc21 [Example 138, (S)-1-(tert-butyl)-3-(1-(1-(3-(tert-butyl)phenyl)ethyl)-2-oxo-1,2-dihydroquinoxalin-6-yl)urea]",0.1 to 1
11,"C[C@@H](c1cc(Cl)ccc1F)n1c(=O)cnc2cc(NC(=O)NC(C)(C)C)ccc21 [Example 139, (S)-1-(tert-butyl)-3-(1-(1-(5-chloro-2-fluorophenyl)ethyl)-2-oxo-1,2-dihydroquinoxalin-6-yl)urea]",0.1 to 1
12,"C[C@@H](c1c(F)cccc1F)n1c(=O)cnc2cc(NC(=O)NC(C)(C)C)ccc21 [Example 140, (S)-1-(tert-butyl)-3-(1-(1-(2,6-difluorophenyl)ethyl)-2-oxo-1,2-dihydroquinoxalin-6-yl)urea]",0.1 to 1
13,"Cc1ccc(Cl)cc1[C@H](C)n1c(=O)cnc2cc(NC(=O)NC(C)(C)C)ccc21 [Example 141, (S)-1-(tert-butyl)-3-(1-(1-(5-chloro-2-methylphenyl)ethyl)-2-oxo-1,2-dihydroquinoxalin-6-yl)urea]",0.1 to 1
14,"C[C@@H](c1cccc(Cl)c1Cl)n1c(=O)cnc2cc(NC(=O)NC(C)(C)C)ccc21 [Example 142, (S)-1-(tert-butyl)-3-(1-(1-(2,3-dichlorophenyl)ethyl)-2-oxo-1,2-dihydroquinoxalin-6-yl)urea]",0.1 to 1
15,"C[C@@H](c1cccc(C2CC2)n1)n1c(=O)cnc2cc(NC(=O)NC(C)(C)C)ccc21 [Example 143, (S)-1-(tert-butyl)-3-(1-(1-(6-cyclopropylpyridin-2-yl)ethyl)-2-oxo-1,2-dihydroquinoxalin-6-yl)urea]",0.1 to 1
16,"COc1cccc([C@H](C)n2c(=O)cnc3cc(NC(=O)NC(C)(C)C)ccc32)n1 [Example 144, (S)-1-(tert-butyl)-3-(1-(1-(6-methoxypyridin-2-yl)ethyl)-2-oxo-1,2-dihydroquinoxalin-6-yl)urea]",0.1 to 1
17,"C[C@@H](c1cccc(N(C)C)n1)n1c(=O)cnc2cc(NC(=O)NC(C)(C)C)ccc21 [Example 145, (S)-1-(tert-butyl)-3-(1-(1-(6-(dimethyl-amino)pyridin-2-yl)ethyl)-2-oxo-1,2-dihydroquinoxalin-6-yl)urea]",0.1 to 1
18,"CC(O)c1cccc([C@H](C)n2c(=O)cnc3cc(NC(=O)NC(C)(C)C)ccc32)c1 (stereo partly drawn) [Example 146, 1-(tert-butyl)-3-(1-((1S)-1-(3-(1-hydroxy-ethyl)phenyl)eth-yl)-2-oxo-1,2-dihydroquinoxalin-6-yl)urea]",> 1
19,"C[C@@H](c1cc(F)ccc1Cl)n1c(=O)cnc2cc(NC(=O)NC(C)(C)C)ccc21 [Example 147, (S)-1-(tert-butyl)-3-(1-(1-(2-chloro-5-fluorophenyl)ethyl)-2-oxo-1,2-dihydroquinoxalin-6-yl)urea]",0.1 to 1
20,"C[C@@H](c1cc(F)ccc1F)n1c(=O)cnc2cc(NC(=O)NC(C)(C)C)ccc21 [Example 148, (S)-1-(tert-butyl)-3-(1-(1-(2,5-difluorophenyl)ethyl)-2-oxo-1,2-dihydroquinoxalin-6-yl)urea]",0.1 to 1
21,"C[C@@H](c1cc(Cl)c(F)cc1F)n1c(=O)cnc2cc(NC(=O)NC(C)(C)C)ccc21 [Example 149, (S)-1-(tert-butyl)-3-(1-(1-(5-chloro-2,4-difluorophenyl)ethyl)-2-oxo-1,2-dihydroquinoxalin-6-yl)urea]",0.1 to 1
22,"C[C@@H](c1cccc(CC(F)(F)F)n1)n1c(=O)cnc2cc(NC(=O)NC(C)(C)C)ccc21 [Example 150, (S)-1-(tert-butyl)-3-(2-oxo-1-(1-(6-(2,2,2-trifluoroethyl)pyridin-2-yl)ethyl)-1,2-dihydroquinoxalin-6-yl)urea]",0.1 to 1
23,"C[C@@H](c1cc(OC(F)(F)F)c(F)cc1F)n1c(=O)cnc2cc(NC(=O)NC(C)(C)C)ccc21 [Example 151, (S)-1-(tert-butyl)-3-(1-(1-(2,4-difluoro-5-(trifluoromethoxy)phe-nyl)ethyl)-2-oxo-1,2-dihydroquinoxalin-6-yl)urea]",0.1 to 1
24,"C[C@@H](c1ccc2c(c1)OCCC2)n1c(=O)cnc2cc(NC(=O)NC(C)(C)C)ccc21 [Example 152, (S)-1-(tert-butyl)-3-(1-(1-(chroman-7-yl)ethyl)-2-oxo-1,2-dihydroquinoxalin-6-yl)urea]",> 1
25,C[C@@H](c1cccc([C@@H](O)C(F)(F)F)n1)n1c(=O)cnc2cc(NC(=O)NC(C)(C)C)ccc21 [Example 153],0.1 to 1
26,"C[C@@H](c1cccc([C@@H](O)C(F)(F)F)c1)n1c(=O)cnc2cc(NC(=O)NC(C)(C)C)ccc21 [Example 155, 1-(tert-butyl)-3-(2-oxo-1-((S)-1-(3-((S)-2,2,2-trifluoro-1-hydroxyethyl)phe-nyl)ethyl)-1,2-dihydroquinoxalin-6-yl)urea]",0.1 to 1
